# Source: US7067625B1, “Isolated TWIK-1 potassium channel proteins” (Centre National de la Recherche Scientifique - CNRS, priority 1996, dated 2006)
# Tests used:
# TWIK-1 [1] = target: T1, TWIK-1 (Homo sapiens, UniProt O00180); assay: Imposed voltage (two-microelectrode voltage-clamp) recording of TWIK-1 K+ currents in Xenopus oocytes injected with TWIK-1 cRNA; type: cell-based; parameters: expressed in transfected cells; host or cells: Xenopus laevis oocytes injected with cRNA transcribed from pEXO-TWIK-1; settings: for sensitivity of the TWIK-1 channel to K+ channel openers: 100 μM
# T1 sequence (O00180 1-336): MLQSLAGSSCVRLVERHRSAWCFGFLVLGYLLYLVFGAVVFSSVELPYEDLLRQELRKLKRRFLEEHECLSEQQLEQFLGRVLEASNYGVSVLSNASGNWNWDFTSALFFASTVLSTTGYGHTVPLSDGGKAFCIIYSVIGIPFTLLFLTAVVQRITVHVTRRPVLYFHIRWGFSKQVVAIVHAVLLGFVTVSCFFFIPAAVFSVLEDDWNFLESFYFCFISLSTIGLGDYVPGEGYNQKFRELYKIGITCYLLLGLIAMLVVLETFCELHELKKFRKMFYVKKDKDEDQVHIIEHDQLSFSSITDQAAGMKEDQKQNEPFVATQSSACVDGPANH
# Experimental: A complementary RNA (cRNA) was transcribed of this construction and injected in the oocytes of X. laevis.
# The TWIK-1 coding sequence was amplified using a low-error rate DNA polymerase (Pwo DNA pol, Boehringer) and subcloned in the plasmid pEXOii so as to yield pEXO-TWIK-1. Mutations were performed using the whole plasmid pEXO-TWIK-1 with a highly reliable PCR extension kit (Boehringer) and two adjacent primers. […] The product of the PCR was linearized by the enzyme BamHI and the cRNA were synthesized using a T7 RNA polymerase (Stratagene).
# In a 0.3-ml perfusion chamber, a single oocyte was impaled on two standard glass microelectrodes (0.5–2.0 MW) charged with 3 M KCl and maintained under voltage-clamp with a Dagan TEV200 amplifier. […] Stimulation of the preparation, data acquisition and analyses were carried out with the pClamp program (Axon Instruments, USA).
# TWIK-1 [2] = target: T1, TWIK-1; assay: Single channel patch-clamp recordings (attached and inside-out patch) of TWIK-1 in oocytes
# Experimental: The pipettes were filled with a strong K^+ solution (40 mM KCl, 100 mM of potassium methane sulfonate, 1.8 mM CaCl2, 2 m M MgCl2 and 5 mM HEPES adjusted to pH 7.4 with KOH). 100 μM of GdCl3 was added to the pipette solution to inhibit the action of the activated channels. The inside-out patches were perfused with a solution containing 140 m M KCl, 10 mM CaCl2, 5 mM HEPES adjusted to pH 7.2 with KOH and 5 mM EGTA added daily. The single channel signals were filtered at 3.5 kHz and analyzed with the Biopatch program (Bio-Logic, Grenoble, France).
# [3] = read-out: inhibition of TWIK-1 currents
smiles,measurement,setting,value
CC(N/C(=N\C#N)Nc1ccncc1)C(C)(C)C (stereo not drawn) [pinacidil],sensitivity of the TWIK-1 channel to K+ channel openers,TWIK-1 [1],not sensitive
"CCCCCCCCCC(=O)O[C@@H]1[C@@H](C)[C@@]2(O)[C@@H](C=C(CO)C[C@@]3(O)C(=O)C(C)=C[C@@H]23)[C@@H]2C(C)(C)[C@]12OC(=O)CCCCCCCCC [PDA, 4α-phorbol-12, 13 didecanoate]",effect on the TWIK-1 currents,TWIK-1 [1]; 1 μM,has no effect
"O=[N+]([O-])c1ccc(O)c([N+](=O)[O-])c1 [DNP, dinitrophenol]",reduction in the TWIK-1 currents (of control amplitude),"TWIK-1 [1]; intracellular acidification by DNP, 1 mM",80%
CC(C)C[C@@H]1NC(=O)[C@H](C)NC(=O)[C@H]([C@@H](C)O)NC(=O)[C@H](CCC(=O)O)NC(=O)[C@@H]2CCCN2C(=O)[C@H](C)NC(=O)[C@H](CCCCN)NC(=O)[C@@H]2CSSC[C@@H](C(=O)N[C@@H](CCC(N)=O)C(=O)N[C@@H](CCC(N)=O)C(=O)N[C@@H](Cc3cnc[nH]3)C(N)=O)NC(=O)[C@H](CCCNC(=N)N)NC(=O)[C@H](CCCNC(=N)N)NC(=O)[C@H](C)NC(=O)[C@H](CSSC[C@H](N)C(=O)N[C@@H](CC(N)=O)C(=O)N2)NC1=O [apamin],inhibition at 0.3 µM,TWIK-1 [1]; [3],< 10%
Nc1ccncc1 [4-aminopyridine],inhibition at 1000 µM,TWIK-1 [1]; 1 mM,< 10%
COc1ccc(Cl)cc1C(=O)NCCc1ccc(S(=O)(=O)NC(=O)NC2CCCCC2)cc1 [glibenclamide],inhibition at 30 µM,TWIK-1 [1],< 10%
Nc1ncnc2c1ncn2[C@@H]1O[C@H](COP(=O)(O)OP(=O)(O)OP(=O)(O)O)[C@@H](O)[C@H]1O [ATP],effect on the activity of the TWIK-1 channel,TWIK-1 [2]; excised patch perfused with 10 mM,does not induce any effect
O=C=O [CO2],sensitivity of channel activity to acidification of the internal solution,"TWIK-1 [2]; after excision of the patch, bubbling of CO2",insensitive
same,reduction in the TWIK-1 currents (of control amplitude),TWIK-1 [1]; intracellular acidification by superfusion with CO2-enriched solution,greater than 95%
CC1(C)Oc2ccc(C#N)cc2C(N2CCCC2=O)C1O (stereo not drawn) [cromakaline],sensitivity of the TWIK-1 channel to K+ channel openers,TWIK-1 [1],not sensitive
CCCCc1oc2ccccc2c1C(=O)c1cc(I)c(OCCN(CC)CC)c(I)c1 [amiodarone],inhibition at 100 µM,TWIK-1 [1]; [3],< 10%
Nc1ncnc2c1nc(Cl)n2[C@@H]1O[C@@H]2COP(=O)(O)O[C@H]2[C@H]1O [8-Cl-AMPc],effect on the activity of TWIK-1,TWIK-1 [1]; 300 μM,does not affect
"CCCCCCCCCCCCCC(=O)O[C@@H]1[C@@H](C)[C@@]2(O)[C@@H](C=C(CO)C[C@]3(O)C(=O)C(C)=C[C@@H]23)[C@@H]2C(C)(C)[C@]12OC(C)=O [PMA, phorbol-12 myristate acetate]",channels revealed in an attached patch initially expressing a single channel,"TWIK-1 [2]; attached patch, 30 nM PMA, +60 mV",at least five channels
same,effect on the TWIK-1 currents,"TWIK-1 [1]; 30 nM, perfusion 10 minutes",increases the TWIK-1 currents
CCCCCCC[N+](CC)(CC)CCCCc1ccc(Cl)cc1 [clofilium],inhibition at 30 µM,TWIK-1 [1],< 10%
CC[N+](CC)(CC)CC [TEA],inhibition of TWIK-1 currents,TWIK-1 [1]; 20 mM,30%
[Ba+2] [Ba^2+],IC50,"TWIK-1 [1]; Xenopus oocytes, +30 mV depolarization from HP -80 mV, read-out: IC50 of inhibition of the K+ currents of TWIK-1",100 µM
CNc1ccc2oc(C[C@H]3O[C@@]4(CC[C@H]3C)O[C@H]([C@H](C)C(=O)c3ccc[nH]3)[C@H](C)C[C@H]4C)nc2c1C(=O)O [A23187],effect on the properties of the TWIK-1 channel,"TWIK-1 [1]; 1 μM, elevation of cytoplasmic Ca2+",without effect
